Laboratory results as given in publication PMC12812011 (Chemmedchem, 2025).
Entries after “also recorded” stand apart in the source; their conditions may differ.

Columns and labels:
SARS-CoV-2 infection = conditions: cited from earlier work; for benefit to COVID-19 patients: clinical trials, oral (camostat), intravenous (nafamostat)
SARS-CoV-2 = test system: SARS-CoV-2; parameters: method as in PMID 32142651, PMID 33676899, PMID 33393462, PMID 32312781, PMID 35382133; conditions: cell culture; cited from earlier work
[1] = test system: particles pseudotyped with the glycoprotein of vesicular stomatitis virus (VSV-G); assay type: cell-based
[2] = test system: pseudotyped particles bearing the SARS-CoV-2 B.1 S protein; assay type: cell-based; conditions: TMPRSS2-independent (cathepsin L-dependent) entry
[3] = test system: pseudotyped particles bearing the SARS-CoV-2 B.1 S protein; assay type: cell-based; conditions: TMPRSS2-dependent entry
[4] = test system: particles pseudotyped with the glycoprotein of vesicular stomatitis virus (VSV-G); assay type: cell-based; remark: listed apart in the source
MCF-10A cells = assay: AlamarBlue cell viability assay; conditions: concentrations up to 100 µM
salmon testes DNA = assay: UV-thermal DNA denaturation with salmon testes DNA; conditions: compound to DNA base ratio 0.1, phosphate buffer pH 7
Procedure: UV thermal denaturation experiments
Thermal melting experiments were conducted with a Varian Cary 300 Bio spectrophotometer equipped
with a 6×6 multicell temperature-controlled block. Temperatures were monitored with a thermistor
inserted into a 1 cm quartz cuvette containing the same volume of water as in the sample cells. Absorbance
changes at 260 nm were monitored from a range of 30 °C to 90 °C with a heating rate of 1 °C min -1 and a
data collection rate of five points per °C. The salmon sperm DNA was purchased from Sigma Aldrich
(extinction coefficient ε260= 6600 M-1 cm-1). A quartz cell with a 1 cm path length was filled with a 1 mL
solution of DNA or DNA-compound complex.
were prepared in a phosphate buffer ([10 mM K2HPO4/KH2PO4], adjusted to pH 7) so that a compound to
DNA base ratio of 0.1 was obtained. The thermal melting temperatures of the duplex or duplex-compound
complex obtained from the first derivative of the melting curves are reported.

poly(dA•dT)2 = test system: poly(dA•dT)2; parameters: method as in PMID 18247550; conditions: DNA oligo rich in AT pairs; cited from earlier work

## CN(C)C(=O)COC(=O)Cc1ccc(OC(=O)c2ccc(NC(=N)N)cc2)cc1 [Camostat, camostat]
SARS-CoV-2 infection
  benefit to COVID-19 patients: little if any benefit
SARS-CoV-2
  inhibition of SARS-CoV-2 infection: inhibit SARS‐CoV‐2 infection with high efficiency
[1]
  VSV-G-driven entry into Vero76 cells: not inhibited
[2]
  SARS-CoV-2 S protein-driven entry into Vero76 cells: not inhibited
[3]
  SARS-CoV-2 S protein-mediated entry into Calu-3 cells: inhibited
[4]
  VSV-G-driven entry into Calu-3 cells: reverse observation

## N=C(N)Nc1ccc(NC(=S)Nc2ccccc2)cc1 [Compound 2]
MCF-10A cells
  IC50: could not be found
MCF-10A cells; 72 hours
  cytotoxicity (cell death): no cytotoxicity; also recorded: no significant cell‐death was detected
Salmon testes DNA
  ΔTm: 0.65 °C

## N=C(N)Nc1ccc(NC(=S)Nc2ccccn2)cc1 [Compound 20]
Salmon testes DNA
  ΔTm: −0.25 °C

## N=C(N)c1ccc2cc(OC(=O)c3ccc(N=C(N)N)cc3)ccc2c1 [Nafamostat, nafamostat]
SARS-CoV-2 infection
  benefit to COVID-19 patients: little if any benefit

## CCN(CC)CCCC(C)Nc1ccnc2cc(Cl)ccc12 (centres unmarked) [chloroquine]
[1]
  VSV-G-driven entry into Vero76 cells: reduced by the highest concentration
[2]
  SARS-CoV-2 S protein-driven entry into Vero76 cells: reduced by the highest concentration
[4]
  VSV-G-driven entry into Calu-3 cells: reverse observation

## N=C(N)Nc1ccc(NC(=S)Nc2ccc(NC(=N)N)cc2)cc1 [hit‐compound]
poly(dA•dT)2
  ΔTm: 23.0 °C

## aprotinin
SARS-CoV-2 infection; aerosolized
  clinical benefit in COVID-19 patients: of clinical benefit
  tolerability in COVID-19 patients: well tolerated
